Measured values from patent publication US20110152267A1, “Compositions and Methods for Treating Hyperproliferative Disorders” (Texas Tech University System, priority 2009, published 2011).

Assays:
Type in all cases: cell-based, human
Conditions in all cases: 96 h
[1] = test system: OVCAR-8 ovarian adenocarcinoma cell line; test: DIMSCAN cytotoxicity, fenretinide + L-threo-sphinganines 3:1 (Example B15); set-up: key to CI (Combination Index): Chou-Talalay CI: <0.9 synergy, 0.9-1.1 additive, >1.1 antagonism
Method: (§1) Cytotoxicity Assay—Once again, cytotoxicity is determined using the DIMSCAN assay system (R. Proffitt et al., Cytometry 24, 204-213 (1996); T. Frgala et al., Mol Cancer Ther. 6:886-97, 2007). The system employs digital imaging microscopy to quantify viable cells, which selectively accumulate fluorescein diacetate to become brightly fluorescent. The system is capable of measuring cytotoxicity over a 4-5 log dynamic range by quenching the residual fluorescence of dead and dying cells with eosin Y and quantifying the total fluorescence of viable cells using digital thresholding. Measured fluorescence is directly proportionate to the number of viable cells. A comparison of the total fluorescence of a drug-treated cell population to the fluorescence of a similar number of untreated cells yields a survival fraction. In brief, 2000 to 10,000 cells/well (depending on size and growth rates) are replicate plated into 60 wells of a 96-well tissue culture plate in 0.1 mL of whole medium and allowed to attach overnight. Drug(s) are then added in 0.05 mL of whole medium to the final concentrations indicated. Drugs (fenretinide, and various chain length L-threo-sphinganines) were tested both as single agents and in a 3:1 ratio of fenretinide:sphinganine. C18-L-threo-sphinganine, or “safingol,” was also tested and results shown for reference. There are 12 wells treated per drug concentration. Twelve wells receive drug vehicle-only to the appropriate final concentration and serve as controls for the plate. Cells are incubated for 96 hours at 37° C. in ambient air with 5% CO2. Fluorescein diacetate is then added to each well in 0.05 mL media to a final concentration of 8 microgram/mL. Cells are incubated for a further 15 minutes at 37° C. and 0.03 mL of 0.5% eosin Y is added to each well. Total fluorescence of viable cells is then measured by digital imaging microscopy. Results were graphed as the ratio of the fluoresecence of drug-treated wells to non-drug treated control wells (i.e., Survival Fraction). All tests were performed at least twice. Representative results are shown.
(§2) The Combination Index (CI) is a term to describe mathematical modeling of the pharmacologic effects on cytotoxicity (cell death) of two drugs in combination based. Cytotoxic “synergy” is defined as a cell death affect which is greater than would be expected from a simple product of the single agent cytotoxicities alone (i.e. an “additive” effect). By Chou-Talalay analysis, a CI<0.9 on a Fraction Affected (“Fa”, i.e. fraction of cells killed) indicates synergy, with smaller numbers indicating greater synergy; a CI of 0.9-1.1 signifies an additive or near-additive effect; and a CI>1.1 means the drug combination is antagonistic.
Fenretinide and L-threo-sphinganines tested in human ovarian adenocarcinoma (ovarian cancer) cell line, OVCAR-8.

[2] = test system: A-549 lung adenocarcinoma cell line; test: DIMSCAN cytotoxicity, fenretinide + L-threo-sphinganines 3:1 (Example B13)
Method: as §1, §2
Fenretinide and L-threo-sphinganines tested in human lung adenocarcinoma (lung cancer) cell line, A-549.

[3] = test system: T98G Glioblastoma multiforme cell line; test: DIMSCAN cytotoxicity, fenretinide + L-threo-sphinganines 3:1 (Example B6)
Method: as §1, §2
Fenretinide and L-threo-sphinganines tested in human Glioblastoma multiforme (brain cancer) cell line, T98G.

[4] = test system: A-172 Glioblastoma multiforme cell line; test: DIMSCAN cytotoxicity, fenretinide + L-threo-sphinganines 3:1 (Example B4); set-up: key to CI (Combination Index): Chou-Talalay CI: <0.9 synergy, 0.9-1.1 additive, >1.1 antagonism
Method: as §1, §2
Fenretinide and L-threo-sphinganines tested in human Glioblastoma multiforme (brain cancer) cell line, A-172.

[5] = test system: U-266 Multiple Myeloma cell line; test: DIMSCAN cytotoxicity, fenretinide + L-threo-sphinganines 3:1 (Example B3)
Method: as §1, §2
Fenretinide and L-threo-sphinganines tested in human Multiple Myeloma (a cancer of the blood and bone marrow) cell line, U-266.

[6] = test system: HT-29 colorectal adenocarcinoma cell line; test: DIMSCAN cytotoxicity, fenretinide + L-threo-sphinganines 3:1 (Example B10)
Method: as §1, §2
Fenretinide and L-threo-sphinganines tested in human colorectal adenocarcinoma (colon cancer) cell line, HT-29.

[7] = test system: SJ-G2 Glioblastoma cell line; test: DIMSCAN cytotoxicity, fenretinide + L-threo-sphinganines 3:1 (Example B8)
Method: as §1, §2
Fenretinide and L-threo-sphinganines tested in human Glioblastoma (brain cancer) cell line, SJ-G2.

[8] = test system: A-2058 melanoma cell line; test: DIMSCAN cytotoxicity, fenretinide + L-threo-sphinganines 3:1 (Example B11)
Method: as §1, §2
Fenretinide and L-threo-sphinganines tested in human melanoma (skin cancer) cell line, A-2058.

[9] = 4-HPR 1.5 μM + L-threo-sphinganine 0.5 μM
[10] = 4-HPR 3 μM + L-threo-sphinganine 1 μM
[11] = 4-HPR 6 μM + L-threo-sphinganine 2 μM
[12] = 4-HPR 9 μM + L-threo-sphinganine 3 μM

For CCCCCCCCC[C@H](O)[C@@H](N)CO [C12], the “CI (Combination Index)” value [1, 9] was 0.3, the “Fa (fraction affected)” value [1, 9] was 0.382 and the “CI (Combination Index)” value [1, 10] was 0.5. The “Fa (fraction affected)” value [1, 10] was 0.445, the “CI (Combination Index)” value [1, 11] was 0.6 and the “Fa (fraction affected)” value [1, 11] was 0.634. The “CI (Combination Index)” value [1, 12] was 0.8, the “Fa (fraction affected)” value [1, 12] was 0.704 and the “CI (Combination Index)” value [2, 9] was 2.5. The “Fa (fraction affected)” value [2, 9] was 0.01, the “CI (Combination Index)” value [2, 10] was 1.0 and the “Fa (fraction affected)” value [2, 10] was 0.010. The “CI (Combination Index)” value [2, 11] was 1.0, the “Fa (fraction affected)” value [2, 11] was 0.010 and the “CI (Combination Index)” value [2, 12] was 1.0. For the same compound, the “Fa (fraction affected)” value [2, 12] was 0.020, the “CI (Combination Index)” value [3, 9] was 2.8 and the “Fa (fraction affected)” value [3, 9] was 0.306. For the same compound, the “CI (Combination Index)” value [3, 10] was 3.6, the “Fa (fraction affected)” value [3, 10] was 0.408 and the “CI (Combination Index)” value [3, 11] was 1.5. For the same compound, the “Fa (fraction affected)” value [3, 11] was 0.781, the “CI (Combination Index)” value [3, 12] was 0.2 and the “Fa (fraction affected)” value [3, 12] was 0.981. For the same compound, the “CI (Combination Index)” value [4, 9] was 6.1, the “Fa (fraction affected)” value [4, 9] was 0.024 and the “CI (Combination Index)” value [4, 10] was 4.4. For the same compound, the “Fa (fraction affected)” value [4, 10] was 0.065, the “CI (Combination Index)” value [4, 11] was 0.4 and the “Fa (fraction affected)” value [4, 11] was 0.849. The “CI (Combination Index)” value [4, 12] was 0.2, the “Fa (fraction affected)” value [4, 12] was 0.981 and the “CI (Combination Index)” value [5, 9] was 0.8. For the same compound, the “Fa (fraction affected)” value [5, 9] was 0.176, the “CI (Combination Index)” value [5, 10] was 0.9 and the “Fa (fraction affected)” value [5, 10] was 0.326. For the same compound, the “CI (Combination Index)” value [5, 11] was 0.9, the “Fa (fraction affected)” value [5, 11] was 0.697 and the “CI (Combination Index)” value [5, 12] was 1.2. The “Fa (fraction affected)” value [5, 12] was 0.748, the “CI (Combination Index)” value [6, 9] was 1.0 and the “Fa (fraction affected)” value [6, 9] was 0.217. For the same compound, the “CI (Combination Index)” value [6, 10] was 1.2, the “Fa (fraction affected)” value [6, 10] was 0.642 and the “CI (Combination Index)” value [6, 11] was 1.3. For the same compound, the “Fa (fraction affected)” value [6, 11] was 0.951, the “CI (Combination Index)” value [6, 12] was 1.6 and the “Fa (fraction affected)” value [6, 12] was 0.975. The “CI (Combination Index)” value [7, 9] was 0.8, the “Fa (fraction affected)” value [7, 9] was 0.199 and the “CI (Combination Index)” value [7, 10] was 0.7. For the same compound, the “Fa (fraction affected)” value [7, 10] was 0.530, the “CI (Combination Index)” value [7, 11] was 0.8 and the “Fa (fraction affected)” value [7, 11] was 0.764. For the same compound, the “CI (Combination Index)” value [7, 12] was 0.6, the “Fa (fraction affected)” value [7, 12] was 0.931 and the “CI (Combination Index)” value [8, 9] was 0.3. The “Fa (fraction affected)” value [8, 9] was 0.244, the “CI (Combination Index)” value [8, 10] was 0.6 and the “Fa (fraction affected)” value [8, 10] was 0.247. For the same compound, the “CI (Combination Index)” value [8, 11] was 0.9, the “Fa (fraction affected)” value [8, 11] was 0.518 and the “CI (Combination Index)” value [8, 12] was 1.0. The “Fa (fraction affected)” value [8, 12] was 0.854.
With CCCCCCCCCCCCCCCC[C@H](O)[C@@H](N)CO [C19, (2S,3S)-2-amino-1,3-nonadecanediol] the “CI (Combination Index)” value [1, 9] was 0.1, the “Fa (fraction affected)” value [1, 9] was 0.787 and the “CI (Combination Index)” value [1, 10] was 0.1. For the same compound, the “Fa (fraction affected)” value [1, 10] was 0.881, the “CI (Combination Index)” value [1, 11] was 0.1 and the “Fa (fraction affected)” value [1, 11] was 0.943. The “CI (Combination Index)” value [1, 12] was 0.1, the “Fa (fraction affected)” value [1, 12] was 0.978 and the “CI (Combination Index)” value [2, 9] was 1.6. The “Fa (fraction affected)” value [2, 9] was 0.000, the “CI (Combination Index)” value [2, 10] was 0.6 and the “Fa (fraction affected)” value [2, 10] was 0.007. For the same compound, the “CI (Combination Index)” value [2, 11] was 0.7, the “Fa (fraction affected)” value [2, 11] was 0.159 and the “CI (Combination Index)” value [2, 12] was 0.9. The “Fa (fraction affected)” value [2, 12] was 0.413, the “CI (Combination Index)” value [3, 9] was 0.9 and the “Fa (fraction affected)” value [3, 9] was 0.584. For the same compound, the “CI (Combination Index)” value [3, 10] was 1.1, the “Fa (fraction affected)” value [3, 10] was 0.704 and the “CI (Combination Index)” value [3, 11] was 0.1. For the same compound, the “Fa (fraction affected)” value [3, 11] was 0.990, the “CI (Combination Index)” value [3, 12] was 0.1 and the “Fa (fraction affected)” value [3, 12] was 0.995. For the same compound, the “CI (Combination Index)” value [4, 9] was 84.4, the “Fa (fraction affected)” value [4, 9] was 0.086 and the “CI (Combination Index)” value [4, 10] was 8.1. For the same compound, the “Fa (fraction affected)” value [4, 10] was 0.578, the “CI (Combination Index)” value [4, 11] was over 0.1 and the “Fa (fraction affected)” value [4, 11] was 0.998. The “CI (Combination Index)” value [4, 12] was over 0.1, the “Fa (fraction affected)” value [4, 12] was 1.000 and the “CI (Combination Index)” value [5, 9] was 1.0. For the same compound, the “Fa (fraction affected)” value [5, 9] was 0.19, the “CI (Combination Index)” value [5, 10] was 1.4 and the “Fa (fraction affected)” value [5, 10] was 0.414. For the same compound, the “CI (Combination Index)” value [5, 11] was 0.9, the “Fa (fraction affected)” value [5, 11] was 0.933 and the “CI (Combination Index)” value [5, 12] was 0.3. For the same compound, the “Fa (fraction affected)” value [5, 12] was 0.999, the “CI (Combination Index)” value [6, 9] was 1.2 and the “Fa (fraction affected)” value [6, 9] was 0.138. The “CI (Combination Index)” value [6, 10] was 1.0, the “Fa (fraction affected)” value [6, 10] was 0.736 and the “CI (Combination Index)” value [6, 11] was 0.8. For the same compound, the “Fa (fraction affected)” value [6, 11] was 0.965, the “CI (Combination Index)” value [6, 12] was 0.8 and the “Fa (fraction affected)” value [6, 12] was 0.993. The “CI (Combination Index)” value [7, 9] was 0.7, the “Fa (fraction affected)” value [7, 9] was 0.389 and the “CI (Combination Index)” value [7, 10] was 0.8. The “Fa (fraction affected)” value [7, 10] was 0.700, the “CI (Combination Index)” value [7, 11] was 0.6 and the “Fa (fraction affected)” value [7, 11] was 0.975. For the same compound, the “CI (Combination Index)” value [7, 12] was 0.7, the “Fa (fraction affected)” value [7, 12] was 0.983 and the “CI (Combination Index)” value [8, 9] was 2.1. For the same compound, the “Fa (fraction affected)” value [8, 9] was 0.016, the “CI (Combination Index)” value [8, 10] was 1.7 and the “Fa (fraction affected)” value [8, 10] was 0.198. The “CI (Combination Index)” value [8, 11] was 1.8, the “Fa (fraction affected)” value [8, 11] was 0.648 and the “CI (Combination Index)” value [8, 12] was 0.8. For the same compound, the “Fa (fraction affected)” value [8, 12] was 0.997.
